These results are taken from the supplement of paper PMC11061612.

Experiment [1] has as its system NB12 (Neuroblastoma). Kind of experiment: Bliss excess, mean over the matrix (fraction); higher = more synergy. A digest of the protocol: (§1)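 Cell lines grown in DMEM/F12 or RPMI with 10% FBS were plated in 1536-well plates and held 24 hours at 37°C, 5% CO2 before 72 hours of exposure to two-drug dose matrices, with DMSO typically at 0.2%. CellTiter-Glo 2.0 luminescence gave viability, which was converted to inhibition. Vehicle wells were set to 0 and blank wells to 1. Combination Emax is the second-highest inhibition in the matrix, and Bliss excess is the observed combination effect minus the expected EA + EB − EA·EB, where EA and EB are the single-agent effects.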

Experiment [2] relates to SK-MEL-2 (Melanoma). The description is as above. The essentials:
as §1

Experiment [3] deals with CAL-62 (Thyroid Gland Carcinoma). Kind of experiment: combination Emax (second highest fraction inhibited in the dose matrix, 72 h); higher = more inhibition; extreme values may be limits of the assay. The essentials:
as §1

Experiment [4] has as its system LB996-RCC (Kidney Carcinoma). Described as above. A digest of the protocol:
as §1

The subject of experiment [5] is LXF-289 (Lung Adenocarcinoma). The experiment is described as above. A digest of the protocol: as §1
Experiment [6] concerns NB12 (Neuroblastoma). Described as above. The essentials: as §1
In experiment [7] the test system is NCI-H23 (Lung Adenocarcinoma). The experiment is described as above. The essentials:
as §1

The subject of experiment [8] is OAW-42 (Ovarian Carcinoma). The description is as above. The essentials:
as §1

Experiment [9] relates to SK-MEL-2 (Melanoma). The experiment is described as above. The essentials: as §1
In the next experiment the test system is WM793B (Melanoma). The experiment is described as above. The essentials: as §1
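For Bliss excess, mean over the matrix in this document: after 72 h of two-drug dosing.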

Regarding `NC1(C(=O)N[C@@H](CCO)c2ccc(Cl)cc2)CCN(c2ncnc3[nH]ccc23)CC1` [Capivasertib] + Cn1cnc2c(F)c(Nc3ccc(Br)cc3Cl)c(C(=O)NOCCO)cc21 [Selumetinib] (first compound max 10 µM, 7x7, partner max 10 µM), the Bliss excess in the experiment on NB12 (Neuroblastoma) [1] was 0.0154; in the experiment on SK-MEL-2 (Melanoma) [2] it was 0.0662. Moreover, the “combination Emax” value in experiment [3] was 0.557; in experiment [4], 0.678; in [5] it was 0.62; in the experiment on NB12 (Neuroblastoma) [6], 0.504; in [7], 0.454; in experiment [8], 0.548. The “combination Emax” value worked out at 0.843 in the experiment with SK-MEL-2 (Melanoma) [9] and 0.768 with WM793B (Melanoma).
On to `COc1nnc2ccc(N3CCC(c4ccc(OCCN5CCN(C)C(=O)[C@H]5C)cc4)CC3)nn12` [AZD5153] + CC1(C)CCC(CN2CCN(c3ccc(C(=O)NS(=O)(=O)c4ccc(NCC5CCOCC5)c([N+](=O)[O-])c4)c(Oc4cnc5[nH]ccc5c4)c3)CC2)=C(c2ccc(Cl)cc2)C1 [Venetoclax] (first compound max 1 µM, 7x7, partner max 1 µM), for which the Bliss excess was 0.0928 in the experiment on NB12 (Neuroblastoma) [1] and -0.0035 in the experiment with SK-MEL-2 (Melanoma) [2]. The “combination Emax” value in experiment [3] was found to be 0.753; in experiment [4], 0.473; in [5], 0.646; with NB12 (Neuroblastoma) [6] it was 0.971; in experiment [7], 0.651; in experiment [8], 0.35. Also, the entries for the “combination Emax” value with SK-MEL-2 (Melanoma) [9] and in the experiment on WM793B (Melanoma) were 0.519 and 0.523, respectively.
Consider `Cc1nc(Nc2ncc(C(=O)Nc3c(C)cccc3Cl)s2)cc(N2CCN(CCO)CC2)n1` [Dasatinib] + CC(=O)Nc1cccc(-n2c(=O)n(C3CC3)c(=O)c3c(Nc4ccc(I)cc4F)n(C)c(=O)c(C)c32)c1 [Trametinib] (first compound max 2 µM, 7x7, partner max 1 µM), for which the Bliss excess in the experiment with NB12 (Neuroblastoma) [1] was 0.0319; in the experiment with SK-MEL-2 (Melanoma) [2], -0.0571. The “combination Emax” value in [3] was found to be 0.955; in [4], 0.893; in experiment [5], 0.986; in the experiment on NB12 (Neuroblastoma) [6] it was 0.266; in [7] it was 0.765; in experiment [8], 0.722. In addition, the results for the “combination Emax” value in the experiment on SK-MEL-2 (Melanoma) [9] and in the experiment on WM793B (Melanoma) were 0.94 and 0.705, respectively.
Regarding `Cn1cnc2c(F)c(Nc3ccc(Br)cc3Cl)c(C(=O)NOCCO)cc21` [Selumetinib] + C[C@@H]1COCCN1C2=NC(=NC(=C2)C3(CC3)[S@](=N)(=O)C)C4=C5C=CNC5=NC=C4 [AZD6738] (first compound max 10 µM, 7x7, partner max 10 µM), the Bliss excess in the experiment with NB12 (Neuroblastoma) [1] was -0.0545; with SK-MEL-2 (Melanoma) [2], -0.0161. Further, the “combination Emax” value stood at 0.672 in experiment [3]; 0.556 in experiment [4]; 0.591 in [5]; 0.39 in the experiment on NB12 (Neuroblastoma) [6]; 0.874 in experiment [7]; 0.507 in [8]. The “combination Emax” value in the experiment with SK-MEL-2 (Melanoma) [9] is 0.806; in the experiment on WM793B (Melanoma), 0.703.
In the case of `CC(=O)c1c(C)c2cnc(Nc3ccc(N4CCNCC4)cn3)nc2n(C2CCCC2)c1=O` [Palbociclib] + Cn1cnc2c(F)c(Nc3ccc(Br)cc3Cl)c(C(=O)NOCCO)cc21 [Selumetinib] (first compound max 10 µM, 7x7, partner max 10 µM), the Bliss excess in the experiment on NB12 (Neuroblastoma) [1] amounted to 0.0177; in the experiment on SK-MEL-2 (Melanoma) [2] it was 0.0374. For the same compound, the “combination Emax” value is 0.457 in [3]; 0.285 in [4]; 0.297 in experiment [5]; 0.276 in the experiment on NB12 (Neuroblastoma) [6]; 0.387 in experiment [7]; 0.168 in experiment [8]. Besides, the entries for the “combination Emax” value with SK-MEL-2 (Melanoma) [9] and with WM793B (Melanoma) were 0.805 and 0.585, respectively.
